In patent US20070009965A1, “Novel method for screening for GPCR agonists and/or antagonists from herbs” (Advanced Gene Technology, Corp., priority 2004, published 2007):

Target: MC5R (Homo sapiens, UniProt P33032)
Test: herbal chip hybridization with MC5R and Cy3-anti-MC5R, fluorescence imaging
Assay type: binding
Details: at least 25 ng/ml NDP-MSH spotted on coated slide; at least 25 μg/ml MC5R; at least 5 μg/ml Cy3-anti-MC5R; laser scanner
Procedure: A coated plastic slide (1) having active epoxy groups on its surface was prepared in accordance with the method disclosed in the Paragraph entitled “Pretreatment of the Plastic Slide and Preparation of the Coated Plastic Slide” under the Example section of U.S. Pat. No. 6,645,719 B2.
In a dark room, under room temperature, at least 25 μg/ml of MC3R, MC4R and MC5R were individually added to the slides (2), and the resultant slides (3) were allowed to stand for 1 hour for completing hybridization. The slides (3) were washed with 1× TBST buffer (50 mM Tris, pH 7.3, 0.15 M NaCl and 0.02% Tween 20) and Milli-Q water, and then dried in an incubator at 37° C.
Also in the dark room, under room temperature, at least 5 μg/ml of Cy3-anti-MC3R, Cy3-anti-MC4R and Cy3-anti-MC5R were respectively added to the slides (3), each containing said bound MC3R, MC4R or MC5R. The resultant slides (4) were allowed to stand for 1 hour for completing the specific MCXR-anti-MCXR binding, and were then washed with 1× TBST buffer (50 mM Tris, pH 7.3, 0.15 M NaCl and 0.02% Tween 20) and Milli-Q water, and dried in an incubator at 37° C.

Chain of MC5R (P33032 whole entry, species assumed): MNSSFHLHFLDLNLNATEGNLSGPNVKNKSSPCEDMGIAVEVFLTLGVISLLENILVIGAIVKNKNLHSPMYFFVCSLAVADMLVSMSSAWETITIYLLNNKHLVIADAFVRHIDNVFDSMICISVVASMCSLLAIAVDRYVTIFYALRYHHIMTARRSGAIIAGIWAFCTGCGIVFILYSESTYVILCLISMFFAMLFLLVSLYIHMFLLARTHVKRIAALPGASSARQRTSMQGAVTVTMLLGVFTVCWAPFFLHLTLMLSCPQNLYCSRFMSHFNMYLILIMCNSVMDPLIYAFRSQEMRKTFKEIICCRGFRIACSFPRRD

NH2-Ser-Thr-Ser-Nle-Glu-His-D-Phe-Arg-Trp-Gly-Lys-Pro-Val-OH [NDP-MSH]
Mean of Fluorescence Intensity (M): 722.50
